In patent US9284333B2, “Fused pyrroledicarboxamides and their use as pharmaceuticals” (SANOFI, priority 2012, dated 2016):

How the values were obtained:
Human TASK-1 channels = Human TASK-1 channels (Homo sapiens (Human), UniProt O14649); assay: Determination of the activity on the TASK-1 channel in Xenopus oocytes (two-microelectrode voltage clamp); type: cell-based; conditions: human TASK-1 expressed in Xenopus oocytes, room temperature; read-out: IC50 value for TASK-1 inhibition
Outline: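 Xenopus oocytes were injected with human TASK-1 cRNA and recorded two days later by two-microelectrode voltage clamp, holding at −90 mV with 500 ms steps to 40 mV. Superfusion used ND96, pH 7.4, at room temperature, with rising compound concentrations; percentage inhibition of control current was fitted to a dose-response curve for IC50.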

[1] = tested on: atrium of the anesthetized pig; assay: Investigation of the refractory period and the left-atrial vulnerability in the anesthetized pig; type: in vivo; conditions: Sus scrofa, iv
Protocol: Investigation of the Refractory Period and the Left-Atrial Vulnerability in the Pig
The compounds were tested for prolongation of the refractory period and antiarrhythmic activity on the atrium of the anesthetized pig as described in Knobloch K. et al., Naunyn-Schmiedeberg's Arch. Pharmacol. 2002, 366, 482-487. Here the anti-arrhythmic action relates to the inhibition of the occurrence of episodes of atrial arrhythmias which are induced by a prematurely placed extra-stimulus (S2) in the left atrium (=left-atrial vulnerability). The prolongation of the refractory period (refractoriness) is expressed as the increase in percent of the value of the refractory period 15 min after the end of administration of the test compound vs. the basal value before administration. Mean values of the prolongation of the refractory period are shown from three rates (150/min, 200/min and 250/min). The values for the inhibition of left atrial vulnerability (inhibition of episodes of arrhythmias) in percent refer to three measurements (three time points) before administration of the test compound vs. at least three measurements during the first hour after administration.
In Table 16, the action of compounds of the formula I from the examples above on the refractory period of the left atrium and their antiarrhythmic activity in the anesthetized pig after intravenous (i.v.) administration of the described dose is shown.

Human TASK-1 channels, sequence (O14649 whole entry, the tested form may be a part): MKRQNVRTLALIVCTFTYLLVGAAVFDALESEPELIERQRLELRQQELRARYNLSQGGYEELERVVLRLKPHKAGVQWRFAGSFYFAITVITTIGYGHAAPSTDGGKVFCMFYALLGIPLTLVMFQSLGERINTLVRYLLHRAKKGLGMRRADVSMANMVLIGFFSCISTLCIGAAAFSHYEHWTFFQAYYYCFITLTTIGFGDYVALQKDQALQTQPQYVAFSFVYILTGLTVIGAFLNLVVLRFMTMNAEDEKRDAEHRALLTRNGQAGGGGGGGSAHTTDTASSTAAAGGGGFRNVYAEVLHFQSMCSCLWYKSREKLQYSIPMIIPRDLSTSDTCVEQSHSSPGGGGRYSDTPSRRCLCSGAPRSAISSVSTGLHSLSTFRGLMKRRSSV

SMILES | IC50 (Human TASK-1 channels) | inhibition in vivo at 0.3 mg/kg ([1]; 0.3 mg/kg i.v. bolus injection) | change in vivo at 0.3 mg/kg ([1]; 0.25 h, 0.3 mg/kg i.v. bolus injection, 15 min after administration vs basal, mean of three rates, read-out: % Prolongation of left atrial refractory period) | inhibition in vivo at 0.1 mg/kg ([1]; 0.1 mg/kg i.v. infusion over 1 h) | change in vivo at 0.1 mg/kg ([1]; 0.25 h, 0.1 mg/kg i.v. infusion over 1 h, read-out: % Prolongation of left atrial refractory period)
CC[C@@H](NC(=O)c1cc(C(=O)N[C@H](C)c2ccc(F)cc2)n2c1COCC2)c1ccc(C(F)(F)F)nc1 [16g, 3,4-Dihydro-1H-pyrrolo[2,1-c][1,4]oxazine-6,8-dicarboxylic acid 6-{[(R)-1-(4-fluoro-phenyl)-ethyl]-amide} 8-{[(R)-1-(6-trifluoromethyl-pyridin-3-yl)-propyl]-amide}] | 290 nM | 100% | 19% | – | –
CC[C@H](NC(=O)c1cc(C(=O)N[C@H](C)c2ccc(F)cc2)n2c1COCC2)c1ncccn1 [16h, 3,4-Dihydro-1H-pyrrolo[2,1-c][1,4]oxazine-6,8-dicarboxylic acid 6-{[(R)-1-(4-fluoro-phenyl)-ethyl]-amide} 8-[((S)-1-pyrimidin-2-yl-propyl)amide]] | 240 nM | – | – | 97% | 42%
C[C@H]1CCCN1C(=O)c1cc(C(=O)NCc2ccc(F)cc2Cl)c2n1CCOC2 [16x, 6-((S)-2-Methyl-pyrrolidine-1-carbonyl)-3,4-dihydro-1H-pyrrolo[2,1-c][1,4]oxazine-8-carboxylic acid 2-chloro-4-fluoro-benzylamide] | 190 nM | – | – | – | –
C[C@H]1CCCN1C(=O)c1cc(C(=O)NCc2c(F)cccc2F)c2n1CCOC2 [16y, 6-((S)-2-Methyl-pyrrolidine-1-carbonyl)-3,4-dihydro-1H-pyrrolo[2,1-c][1,4]oxazine-8-carboxylic acid 2,6-difluoro-benzylamide] | 1000 nM | – | – | – | –
CC[C@@H](NC(=O)c1cc(C(=O)N2CCC[C@@H]2C)n2c1COCC2)c1cccc(OC)n1 [16z, 6-((S)-2-Methyl-pyrrolidine-1-carbonyl)-3,4-dihydro-1H-pyrrolo[2,1-c][1,4]oxazine-8-carboxylic acid [(R)-1-(6-methoxy-pyridin-2-yl)-propyl]-amide] | 270 nM | – | – | – | –
